Non-standard residues stand in square brackets, D forms with d. Residues, ends and D or L forms follow the SMILES beside them. βAla = NCCC(=O)O

The record followed here is article doi:10.1101/2024.04.19.590329, “Quantifying and controlling the proteolytic degradation of cell adhesion peptides” (bioRxiv, 2024).

A short description of data set [1]: Degradation of individual glycine-terminated peptide at 19.5 to 5,000 μM (cell type not stated). The data set is classed as in vitro ADME. Conditions: individual peptide with glycine at the terminus, initial concentration 5,000 μM, LCMS, cell type not stated (Fig. 4A). As to the method: The column temperature was a constant 29 °C. The Mass Spectrometer was operated in positive ion mode.
Data Analysis was performed on Xcalibur Software (Thermo Scientific). […] Calculated data was visualized using RStudio.

In data set [2] the test system is cells in gels, all cell types. In words: Viability of cells in gels (alamarBlue). Conditions: cells in PEG gels, days 0, 3 and 7, across all cell types. Format: cell-based, human. As to the method: Cells were cultured in gels as described. A working solution was made by diluting the alamarBlue dye (Y00–100, Thermo Scientific) (1:10) with the same media cells were cultured in. The media the cells were in was replaced with one ml of working solution. One ml of working solution was also placed into 3 blank wells. The cells were then placed in the incubator 36°C, 5% CO2 for 3 hours. After 3 hours, 100 μL of the solution was sampled and placed into a 96 well plate, and fluorescence intensity was measured using a Tecan plate reader using 560Ex/590Em nm filter settings, reading from the bottom of the plate. Immediately after measurement, the alamar blue working solution was washed three times with appropriate media for each cell type being measured and placed back in the incubator. The same cells were used for each measurement during days 0, 3, and 7.
For orientation: Resazurin is reduced to fluorescent resorufin, in cell work by metabolically active cells.

Description for hUVECs: Passage 2 of human umbilical vein endothelial cells (hUVECs) (Life Technology) were seeded into 24 well plates at a seeding density of 150,000 cells per well in 1ml of expansion media (Lifeline Cell Technology, LM-0002) containing ascorbic acid, hydrocortisone, FBS, L-Glutamine, rh-EGF, heparin, and EnGS-US (All supplements LifeFactors, LS-1122). After 24 hour the media was changed. Peptide libraries, each containing 19 peptides and the non-proteolytically degradable βFβAβAβAβAβA-NH2 internal standard, were added to the cell media for a final concentration of 37 μM per peptide. Each library was tested in triplicate per per cell type per study. 40 μl samples were collected from the media at hours 0, 1, 4, 8, 24, and 48. In-between timepoints samples were frozen −80°C. […]
Data Analysis was performed on Xcalibur Software (Thermo Scientific). Peptides were identified automatically using the Thermo Xcalibur Processing Setup window where the mass (m/z) ±0.5 AMU and expected retention times for each quantified peptide were inputted. This was later used to isolate individual peptide species from the total ion count (TIC) trace using the Thermo Xcalibur Quan Setup window, where the area under the curve was calculated and visually inspected for accuracy. […] Relative amounts of a peptide of peptide were then calculated by normalized all values to their corresponding time zero area ratio.

For `CC(C)[C@H](NC(=O)[C@H](Cc1ccccc1)NC(=O)[C@H](CCC(=O)O)NC(=O)CNC(=O)[C@H](CCCNC(=N)N)NC(=O)CN)C(=O)NCCC(N)=O` [amine-terminated RGEFV peptides] (H-GRGEFV[βAla]-NH2), the “peptide remaining after 48 hours” value in data set [1] was 5%.

Take “cyclic GRGDSK(N3) (head to tail) [cRGD, Cyclic RGD peptide, positive control, has no terminus, tethered to PEG-DBCO hydrogel by azide]”: the “viability within gels, in words” value in data set [2] is reported as “greatest viability”.

Consider LIAANK, for which the degradation in words result in the data set on hUVECs was “rapidly degraded”.
